Test results published in ChEMBL document CHEMBL2346651, “Structure-activity relationship study of tachykinin peptides for the development of novel neurokinin-3 receptor selective agonists” (Bioorg Med Chem, 2013).
Residues, ends and D or L forms follow the SMILES beside them.

Assays:
[1] = molecular target: T1, Neuromedin-K receptor (Homo sapiens, UniProt P29371); assay: Agonist activity at NK3R (unknown origin) transfected in CHO cells assessed as calcium influx […]; format: functional, cell-based
T1 sequence (P29371 whole entry): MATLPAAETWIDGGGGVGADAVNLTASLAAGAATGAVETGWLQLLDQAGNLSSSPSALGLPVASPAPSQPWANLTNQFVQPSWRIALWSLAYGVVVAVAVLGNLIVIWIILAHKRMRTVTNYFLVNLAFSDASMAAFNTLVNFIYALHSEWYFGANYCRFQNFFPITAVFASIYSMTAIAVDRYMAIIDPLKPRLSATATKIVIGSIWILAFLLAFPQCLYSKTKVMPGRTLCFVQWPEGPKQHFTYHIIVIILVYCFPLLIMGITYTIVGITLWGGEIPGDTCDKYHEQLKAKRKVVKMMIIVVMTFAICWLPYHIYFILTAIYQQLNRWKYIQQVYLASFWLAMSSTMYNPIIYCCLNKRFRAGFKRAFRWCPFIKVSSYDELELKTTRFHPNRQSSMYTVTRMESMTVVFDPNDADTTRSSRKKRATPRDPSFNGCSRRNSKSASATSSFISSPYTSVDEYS

[2] = molecular target: T2, Substance-K receptor (Homo sapiens) (UniProt P21452); assay: Displacement of [125I]-NKA from NK2R (unknown origin) transfected in CHO cells at 10 uM by gamma counting analysis; format: cell-based
T2 sequence (whole entry): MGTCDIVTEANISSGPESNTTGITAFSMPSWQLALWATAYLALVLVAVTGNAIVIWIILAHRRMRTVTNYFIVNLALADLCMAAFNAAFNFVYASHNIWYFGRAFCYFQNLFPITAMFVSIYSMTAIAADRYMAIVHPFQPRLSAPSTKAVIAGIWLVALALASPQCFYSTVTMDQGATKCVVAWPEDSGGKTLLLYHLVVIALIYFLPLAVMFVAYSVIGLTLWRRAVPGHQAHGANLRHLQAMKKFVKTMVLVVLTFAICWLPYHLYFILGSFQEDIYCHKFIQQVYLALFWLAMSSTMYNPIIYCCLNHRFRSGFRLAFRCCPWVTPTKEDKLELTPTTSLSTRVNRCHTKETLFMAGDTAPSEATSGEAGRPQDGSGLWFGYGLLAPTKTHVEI

[3] = molecular target: Substance-P receptor (Homo sapiens) (UniProt P25103); assay: Displacement of [125I]-BH-SP from NK1R (unknown origin) transfected in CHO cells at 10 uM by gamma counting analysis; format: cell-based
[4] = molecular target: T1, Neuromedin-K receptor; assay: Displacement of ([125I]-His3, MePhe7)-NKB from NK3R (unknown origin) transfected in CHO cells by gamma counting analysis; format: cell-based

Chain of Substance-P receptor (Homo sapiens) (P25103 whole entry): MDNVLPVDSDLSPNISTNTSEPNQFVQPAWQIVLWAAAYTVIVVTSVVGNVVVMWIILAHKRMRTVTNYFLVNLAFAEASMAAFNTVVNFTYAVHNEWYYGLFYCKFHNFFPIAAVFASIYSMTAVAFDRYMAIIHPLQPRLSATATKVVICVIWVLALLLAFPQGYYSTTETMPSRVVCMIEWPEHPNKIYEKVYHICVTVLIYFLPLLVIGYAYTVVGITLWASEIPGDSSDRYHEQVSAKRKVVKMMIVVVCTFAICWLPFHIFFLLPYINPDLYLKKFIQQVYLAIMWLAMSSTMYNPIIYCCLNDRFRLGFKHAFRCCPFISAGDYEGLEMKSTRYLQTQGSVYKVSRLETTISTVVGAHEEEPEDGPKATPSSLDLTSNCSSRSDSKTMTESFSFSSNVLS

Compound | EC50 [1] | inhibition [2] | inhibition [3] | IC50 [4]
CSCC[C@H](NC(=O)[C@H](CC(C)C)NC(=O)CNC(=O)[C@H](Cc1ccc(O)cc1)NC(=O)[C@H](Cc1ccccc1)NC(=O)[C@H](CCC(=O)O)NC(=O)[C@H](CC(=O)O)NC(=O)[C@@H]1CCCN1C(=O)[C@H](CC(N)=O)NC(=O)[C@@H]1CCCN1C(=O)[C@@H]1CCC(=O)N1)C(N)=O (HELM PEPTIDE1{[Glp].P.N.P.D.E.F.Y.G.L.M.[am]}$$$$V2.0) | 1.38 nM | < 10% | 98% | 710 nM
CSCC[C@H](NC(=O)[C@H](CC(C)C)NC(=O)CNC(=O)[C@H](Cc1ccccc1)N(C)C(=O)[C@H](Cc1ccccc1)NC(=O)[C@@H](NC(=O)[C@H](CC(=O)O)NC(=O)[C@H](Cc1cnc[nH]1)NC(=O)[C@H](CCSC)NC(=O)[C@@H](N)CC(=O)O)[C@@H](C)O)C(N)=O (HELM PEPTIDE1{D.M.H.D.T.F.[meF].G.L.M.[am]}$$$$V2.0) | 0.046 nM | 19% | < 10% | 4.3 nM
CSCC[C@H](NC(=O)[C@H](CC(C)C)NC(=O)CNC(=O)[C@H](Cc1ccccc1)N(C)C(=O)[C@H](Cc1ccccc1)NC(=O)[C@H](CC(=O)O)NC(=O)[C@H](CC(=O)O)NC(=O)CNC(=O)[C@@H](NC(=O)[C@@H](N)CC(=O)O)[C@@H](C)O)C(N)=O (HELM PEPTIDE1{D.T.G.D.D.F.[meF].G.L.M.[am]}$$$$V2.0) | 0.11 nM | < 10% | < 10% | 81 nM
CC[C@H](C)[C@H](NC(=O)[C@H](Cc1ccccc1)NC(=O)[C@H](CC(=O)O)NC(=O)[C@H](CC(=O)O)NC(=O)[C@H](CCCCN)NC(=O)[C@H](CO)NC(=O)[C@@H]1CCCN1C(=O)[C@@H]1CCC(=O)N1)C(=O)NCC(=O)N[C@@H](CC(C)C)C(=O)N[C@@H](CCSC)C(N)=O (HELM PEPTIDE1{[Glp].P.S.K.D.D.F.I.G.L.M.[am]}$$$$V2.0) | 0.0054 nM | 56% | 91% | 35 nM
CSCC[C@H](NC(=O)[C@H](CC(C)C)NC(=O)CNC(=O)[C@@H](NC(=O)[C@H](Cc1ccccc1)NC(=O)[C@H](CCC(N)=O)NC(=O)[C@H](CC(=O)O)NC(=O)[C@H](CO)NC(=O)[C@H](CCCCN)NC(=O)[C@@H]1CCCN1C(=O)[C@@H](NC(=O)[C@@H](N)CC(=O)O)C(C)C)C(C)C)C(N)=O [KASSININ] | 0.21 nM | – | – | 100 nM
CSCC[C@H](NC(=O)[C@H](CC(C)C)NC(=O)CNC(=O)[C@H](Cc1ccccc1)N(C)C(=O)[C@H](Cc1ccccc1)NC(=O)[C@H](CC(=O)O)NC(=O)[C@H](CC(=O)O)NC(=O)[C@@H]1CCCN1C(=O)[C@H](CCCN=C(N)N)NC(=O)[C@@H]1CCCN1C(=O)[C@@H](N)CCCCN)C(N)=O (HELM PEPTIDE1{K.P.R.P.D.D.F.[meF].G.L.M.[am]}$$$$V2.0) | 5.04 nM | – | – | 31 nM
H-KPRPDQFYGLM-NH2 | – | 95% | 101% | –
CSCC[C@H](NC(=O)[C@H](CC(C)C)NC(=O)CNC(=O)[C@H](Cc1ccccc1)N(C)C(=O)[C@H](Cc1ccccc1)NC(=O)[C@H](CC(=O)O)NC(=O)[C@H](CC(=O)O)NC(=O)[C@@H]1CCCN1C(=O)[C@H](CCCNC(=N)N)NC(=O)[C@@H]1CCCN1C(=O)[C@@H](N)CCCCN)C(N)=O (HELM PEPTIDE1{K.P.R.P.D.D.F.[meF].G.L.M.[am]}$$$$V2.0) | – | < 10% | 26% | –
CSCC[C@H](NC(=O)[C@H](CC(C)C)NC(=O)CNC(=O)[C@H](Cc1ccc(O)cc1)NC(=O)[C@H](Cc1ccccc1)NC(=O)[C@H](CCCCN)NC(=O)[C@H](CC(N)=O)NC(=O)[C@@H]1CCCN1C(=O)[C@H](CC(=O)O)NC(=O)[C@H](C)NC(=O)[C@@H]1CCC(=O)N1)C(N)=O [PHYSALAEMIN] | 3.36 nM | – | – | 1550 nM

Other lines, results leading:

EC50 [1] | inhibition [2] | inhibition [3] | IC50 [4] | Compound
0.036 nM | 10% | < 10% | 18 nM | CSCC[C@H](NC(=O)[C@H](CC(C)C)NC(=O)CNC(=O)[C@H](Cc1ccccc1)N(C)C(=O)[C@H](Cc1ccccc1)NC(=O)[C@H](CC(N)=O)NC(=O)[C@H](CC(=O)O)NC(=O)[C@H](Cc1cnc[nH]1)NC(=O)[C@H](CCSC)NC(=O)[C@@H](N)CC(=O)O)C(N)=O (HELM PEPTIDE1{D.M.H.D.N.F.[meF].G.L.M.[am]}$$$$V2.0)
0.08 nM | – | – | 2.5 nM | CSCC[C@H](NC(=O)[C@H](CC(C)C)NC(=O)CNC(=O)[C@H](Cc1ccccc1)N(C)C(=O)[C@H](Cc1ccccc1)NC(=O)[C@H](CCCN=C(N)N)NC(=O)[C@H](CC(=O)O)NC(=O)[C@H](Cc1cnc[nH]1)NC(=O)[C@H](CCSC)NC(=O)[C@@H](N)CC(=O)O)C(N)=O (HELM PEPTIDE1{D.M.H.D.R.F.[meF].G.L.M.[am]}$$$$V2.0)
0.083 nM | < 10% | < 10% | 19 nM | CSCC[C@H](NC(=O)[C@H](CC(C)C)NC(=O)CNC(=O)[C@H](Cc1ccccc1)N(C)C(=O)[C@H](Cc1ccccc1)NC(=O)[C@H](CC(=O)O)NC(=O)[C@H](CC(=O)O)NC(=O)[C@@H]1CCCN1C(=O)[C@H](CC(N)=O)NC(=O)[C@@H]1CCCN1C(=O)[C@@H]1CCC(=O)N1)C(N)=O (HELM PEPTIDE1{[Glp].P.N.P.D.D.F.[meF].G.L.M.[am]}$$$$V2.0)
0.041 nM | 38% | < 10% | 45 nM | CSCC[C@H](NC(=O)[C@H](CC(C)C)NC(=O)CNC(=O)[C@H](Cc1ccccc1)N(C)C(=O)[C@H](Cc1ccccc1)NC(=O)[C@@H]1CCCN1C(=O)[C@H](CC(=O)O)NC(=O)[C@H](Cc1cnc[nH]1)NC(=O)[C@H](CCSC)NC(=O)[C@@H](N)CC(=O)O)C(N)=O (HELM PEPTIDE1{D.M.H.D.P.F.[meF].G.L.M.[am]}$$$$V2.0)
0.079 nM | 92% | 94% | 53 nM | CSCC[C@H](NC(=O)[C@H](CC(C)C)NC(=O)CNC(=O)[C@@H](NC(=O)[C@H](Cc1ccccc1)NC(=O)[C@H](CCC(=O)O)NC(=O)[C@H](CC(=O)O)NC(=O)[C@@H]1CCCN1C(=O)[C@H](CC(N)=O)NC(=O)[C@@H]1CCCN1C(=O)[C@@H]1CCC(=O)N1)C(C)C)C(N)=O (HELM PEPTIDE1{[Glp].P.N.P.D.E.F.V.G.L.M.[am]}$$$$V2.0)
0.065 nM | 29% | < 10% | 1.5 nM | CSCC[C@H](NC(=O)[C@H](CC(C)C)NC(=O)CNC(=O)[C@H](Cc1ccccc1)N(C)C(=O)[C@H](Cc1ccccc1)NC(=O)[C@@H](NC(=O)[C@H](CC(=O)O)NC(=O)[C@H](Cc1cnc[nH]1)NC(=O)[C@H](CCSC)NC(=O)[C@@H](N)CC(=O)O)C(C)C)C(N)=O (HELM PEPTIDE1{D.M.H.D.V.F.[meF].G.L.M.[am]}$$$$V2.0)
0.06 nM | 35% | < 10% | 4 nM | CC[C@H](C)[C@H](NC(=O)[C@H](CC(=O)O)NC(=O)[C@H](Cc1cnc[nH]1)NC(=O)[C@H](CCSC)NC(=O)[C@@H](N)CC(=O)O)C(=O)N[C@@H](Cc1ccccc1)C(=O)N(C)[C@@H](Cc1ccccc1)C(=O)NCC(=O)N[C@@H](CC(C)C)C(=O)N[C@@H](CCSC)C(N)=O (HELM PEPTIDE1{D.M.H.D.I.F.[meF].G.L.M.[am]}$$$$V2.0)
– | 95% | 100% | 96 nM | CC[C@H](C)[C@H](NC(=O)[C@H](Cc1ccccc1)NC(=O)[C@H](C)NC(=O)[C@H](CC(=O)O)NC(=O)[C@H](CCCCN)NC(=O)[C@H](CO)NC(=O)[C@@H]1CCCN1C(=O)[C@@H]1CCC(=O)N1)C(=O)NCC(=O)N[C@@H](CC(C)C)C(=O)N[C@@H](CCSC)C(N)=O [ELEDOISIN] (HELM PEPTIDE1{[Glp].P.S.K.D.A.F.I.G.L.M.[am]}$$$$V2.0)
0.47 nM | 74% | 53% | 89 nM | H-DVPKSDDFVGLM-NH2
10.7 nM | – | – | 2990 nM | H-KPRPDQFYGLM-NH2 [BUFOKININ]
0.15 nM | < 10% | 87% | 54 nM | CSCC[C@H](NC(=O)[C@H](CC(C)C)NC(=O)CNC(=O)[C@H](Cc1ccccc1)N(C)C(=O)[C@H](Cc1ccccc1)NC(=O)[C@H](CC(=O)O)NC(=O)[C@H](CC(N)=O)NC(=O)[C@@H]1CCCN1C(=O)[C@H](CC(=O)O)NC(=O)[C@H](C)NC(=O)[C@@H]1CCC(=O)N1)C(N)=O (HELM PEPTIDE1{[Glp].A.D.P.N.D.F.[meF].G.L.M.[am]}$$$$V2.0)
– | 62% | 60% | – | CSCC[C@H](NC(=O)[C@H](CC(C)C)NC(=O)CNC(=O)[C@H](Cc1ccccc1)N(C)C(=O)[C@H](Cc1ccccc1)NC(=O)[C@H](CCCNC(=N)N)NC(=O)[C@H](CC(=O)O)NC(=O)[C@H](Cc1cnc[nH]1)NC(=O)[C@H](CCSC)NC(=O)[C@@H](N)CC(=O)O)C(N)=O (HELM PEPTIDE1{D.M.H.D.R.F.[meF].G.L.M.[am]}$$$$V2.0)
